Measurements as given in paper PMC9318819 (Viruses, 2022).
Where two headings read alike, the source gives them in different places.

Assays:
[1] = system: CXCR4-tropic HIV isolate NL4-3; assay: deCIPhR in vitro anti-HIV replication assay (β-galactosidase, LTR-driven LacZ); assay type: cell-based
[2] = system: HIV-1 (PBL286 (02ET_14), subtype C, Ethiopian isolate); assay: Anti-HIV screening in PBMC (Southern Research Institute); assay type: cell-based; conditions: for EC50: read-out: Antiviral Activity EC50; for EC90: read-out: Antiviral Activity EC90; for inhibition at 0.08 µg/mL: read-out: inhibition of HIV replication in PBMC
[3] = system: HIV provirus expression in J-Lat 10.6 T cells; assay: In vitro HIV latency reversal, GFP expression by flow cytometry; assay type: cell-based; conditions: 24 h
[4] = Cell viability by resazurin dye; assay type: cell-based; conditions: human, Jurkat T cells (Clone E6-1), parental, lacking HIV provirus, read-out: viability relative to 0.1% DMSO
Jurkat cells = assay: T cell activation, CD69 expression by flow cytometry; assay type: cell-based; conditions: 24 h
[5] = Primary cell viability by trypan blue counting; assay type: cell-based; conditions: human, 3 donors, read-out: viability of primary CD4+ T cells
[6] = system: HIV-1 in primary CD4+ T cells from cART-suppressed donors; assay: Ex vivo latency reversal, supernatant viral RNA by qRT-PCR; assay type: cell-based; conditions: 24 h, 3 donors
[7] = PBMC viability / cytotoxicity (MTS dye); conditions: human
HeLa-SXR5 cell line = assay: Cytotoxicity under deCIPhR cell culture conditions (Alamar Blue, four days); conditions: four days of incubation, any concentration (0.08 to 5 μg/mL)
J-Lat 10.6 cells = assay: Effect of PKC inhibitors Gö 6983 and enzastaurin on LRA-induced latency reversal; assay type: cell-based; conditions: 1 μM Gö 6983
in vitro = conditions: human
[8] = Human immunodeficiency virus 1, PBMC
[9] = Human immunodeficiency virus 1, PBMC, subtype C virus

**Q.** With `C=C(C)C12OC3(/C=C/C=C/CCC)OC1C1C4OC4(CO)C(O)C4(O)C(=O)C(C)=CC4C1(O3)C(C)C2OC(=O)c1ccccc1` (stereo not shown) [Compound 1, yuanhuacine A] as the compound, how does the “inhibition of HIV replication across all test concentrations” value ([1]; test concentrations 0.08 to 5 μg/mL) read?
**A.** 65–80%

**Q.** What about the EC50 [2, 8] of the same compound?
**A.** 30 nM

**Q.** And the EC90 [2, 8]?
**A.** 90 nM

**Q.** And the inhibition at 0.08 µg/mL [2, 8]?
**A.** > 80%

**Q.** And the “Selectivity Index CC50/IC50” value ([2]; PBMC)?
**A.** >500

**Q.** What about the “GFP expression (latency reversal), % of live-gated cells” value ([3]; 0.15 μM) of the same compound?
**A.** 65.5 ± 6.3%

**Q.** What about the viability at 24 h, 1.5 µM [4] of the same compound?
**A.** 51.2 ± 11.2%

**Q.** What about the CD69-positive cells (Jurkat cells; 0.5 μM) of the same compound?
**A.** 75.4 ± 2.2%

**Q.** And the viability at 24 h, 1.5 µM [5]?
**A.** 96.4 ± 32.2%

**Q.** What about the “average fold increase in viral RNA” value ([6]; 1.5 μM) of the same compound?
**A.** 10.8 fold

**Q.** What about the “average supernatant viral RNA” value ([6]; 1.5 μM) of the same compound?
**A.** 352.5 ± 430.4 copies/mL

**Q.** And the CC50 [7]?
**A.** > 15000 nM

**Q.** And the “cytotoxicity (Alamar Blue)” value (HeLa-SXR5 cell line)?
**A.** no evidence of cytotoxicity at any concentration

**Q.** With `C=C(C)C12OC3(/C=C/C=C/CCCCC)OC1C1C4OC4(CO)C(O)C4(O)C(=O)C(C)=CC4C1(O3)C(C)C2OC(=O)c1ccccc1` (stereo not shown) [Compound 2, yuanhuacine] as the compound, how does the inhibition at 0.08 µg/mL [2, 8] read?
**A.** > 80%

**Q.** And the “GFP expression (latency reversal), % of live-gated cells” value ([3]; 0.15 μM)?
**A.** 58.2 ± 4.7%

**Q.** What about the viability at 24 h, 1.5 µM [4] of the same compound?
**A.** 58.5 ± 15.9%

**Q.** And the CD69-positive cells (Jurkat cells; 0.5 μM)?
**A.** 74.5 ± 1.3%

**Q.** And the viability at 24 h, 1.5 µM [5]?
**A.** 79.6 ± 41.5%

**Q.** And the “average fold increase in viral RNA” value ([6]; 1.5 μM)?
**A.** 9.1 fold

**Q.** What about the “average supernatant viral RNA” value ([6]; 1.5 μM) of the same compound?
**A.** 297 ± 267 copies/mL

**Q.** Which results are given for `CC(=O)O[C@@]12C[C@@H](C)[C@@]3(O)[C@@H](C=C(CO)C[C@]4(O)C(=O)C(C)=C[C@@H]34)[C@@H]1C2(C)C` [prostratin, reference compound]?
**A.** GFP expression (latency reversal), % of live-gated cells ([3]; 2.5 μM): 66.0 ± 5.7%; reduction in latency reversal by pan-PKC inhibitor Gö 6983 (J-Lat 10.6 cells; LRA at 2.5 μM): 74.7 ± 17.3%; viability at 24 h, 0.5 µM ([4]; 0.5 μM): 56 ± 10%; CD69-positive cells (Jurkat cells; 2.5 μM): 73.2 ± 1.3%; viability at 24 h, 10 µM ([5]; 10 μM): 65.9 ± 12.4%; average fold increase in viral RNA ([6]; 10 μM): 23.2 fold; average supernatant viral RNA ([6]; 10 μM): 755.5 ± 1144.2 copies/mL

**Q.** What does the source list for `O=C1Nc2ccc(Cl)cc2[C@@](C#CC2CC2)(C(F)(F)F)O1` [efavirenz]?
**A.** inhibition at 0.43 µM ([1]; Human immunodeficiency virus 1, NL43, 430 nM): 43.9 ± 41.9%; inhibition at 0.93 µM ([1]; Human immunodeficiency virus 1, NL43, 930 nM): 111 ± 22.1%; inhibition at 2 µM ([1]; Human immunodeficiency virus 1, NL43, 2000 nM): 107 ± 24.1%; inhibition at 4.3 µM ([1]; Human immunodeficiency virus 1, NL43, 4300 nM): 100%

**Q.** What does the source list for `Cc1cn([C@H]2C[C@H](N=[N+]=[N-])[C@@H](CO)O2)c(=O)[nH]c1=O` [AZT, azidothymidine, reference compound]?
**A.** EC50 [2, 9]: 7 nM; EC90 [2, 9]: 50 nM; Selectivity Index CC50/IC50 ([2]; PBMC): >142; CC50 (in vitro): > 1000 nM

**Q.** For `Cc1[nH]c2ccccc2c1CCNCc1ccc(/C=C/C(=O)NO)cc1` [Panobinostat, reference compound], which “effect of Gö 6983 on latency reversal” value (J-Lat 10.6 cells; LRA at 0.1 μM) is on record?
**A.** unaffected

**Q.** What about the CD69-positive cells (Jurkat cells; 0.1 μM) of the same compound?
**A.** 1.5 ± 1.3%
